Laboratory results reported in PubChem BioAssay AID1959 (Broad Institute, 2009).
Active and inactive are the calls of the source.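 Rule for the calls: active = growth-inhibition EC50 no more than tenfold above the top tested dose; inconclusive = flat fit between 30% and 70% inhibition, or unreliable fit; inactive = EC50 more than tenfold above the top tested dose.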

These compounds were tested on E. coli NEB5alpha growth, BacTiter-Glo luminescence, 4 h (assay: Escherichia coli growth inhibition, dose response, counter-screen for MEX-5/POS-1 RNA-binding inhibitor project, luminescence, NEB5alpha (AID 1959);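 note: pUC19-transformed ampicillin-resistant cells grown in LB with ampicillin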).

SMILES | EC50
O=C(/C=C/c1ccc([N+](=O)[O-])s1)N1CCCC1 | > 11 µM (inactive)
Cc1cc(C=C2C(=O)NC(=O)NC2=O)c(C)n1-c1cccnc1 | > 11 µM (inactive)
Cc1ccc(N=Nc2c(O)ccc3n[nH]nc23)cc1 | > 11 µM (inactive)
Cc1ccc(/C=C2\C(=O)NC(=S)N(c3cccc(F)c3)C2=O)o1 | > 11 µM (inactive)
CCOC(=O)c1c(/N=C/c2c(O)n(-c3cccc(C)c3)c(=O)[nH]c2=O)sc2c1CCCC2 | > 11 µM (inactive)
Cn1ncc2c(NNC(=O)c3ccc(O)cc3)ncnc21 | > 11 µM (inactive)
CCOC(=O)c1c2ccc(OCC(=O)N/N=C/c3ccc(Cl)cc3)cc2n2ccccc12 | > 11 µM (inactive)
Nc1nnc(C(=O)c2ccccc2N)s1 | > 11 µM (inactive)
COc1ccc(Nc2ncnc3nc[nH]c23)cc1OC | > 11 µM (inactive)
O=c1[nH]c(=O)n(Cc2ccccc2Cl)c(O)c1C=Nc1ccc(F)cc1 | > 11 µM (inactive)
Cc1cc[n+](C2=C([O-])c3ccccc3C(=O)/C2=N\S(=O)(=O)c2cccs2)cc1C | > 11 µM (inactive)
COCCCNC(CC(=O)Nc1cc(C)cc(C)c1)C(=O)O (stereo not drawn) | > 11 µM (inactive)
Fc1ccc(-c2nc3c(Cl)cc(C(F)(F)F)cn3c2Cl)cc1 | > 11 µM (inactive)
COc1c(/C=C2/C(=O)NC(=O)N(C)C2=O)c(CCN(C)C(=O)c2ccccc2)cc2c1OCO2 | > 11 µM (inactive)
Cc1cc(C)c2c(c1)C1C=CCC1C(c1ccc(S(=O)(=O)N3CCOCC3)cc1)N2 (stereo not drawn) | > 11 µM (inactive)
CCOC(=O)c1c(NC(=O)CC2Nc3ccccc3NC2=O)sc(C)c1C (stereo not drawn) | > 11 µM (inactive)
Cc1ccc(N(C)S(=O)(=O)c2c(C)noc2/C=C/N(C)C)cc1 | > 11 µM (inactive)
CCC1=NN2C(=N)/C(=C\c3ccc(SCc4ccco4)o3)C(=O)N=C2S1 | > 11 µM (inactive)
CCCCC1=CC2=CC(=O)C(C)(O)C(=O)C2=CO1 (stereo not drawn) | > 11 µM (inactive)
COC(=O)c1cc2n3ccccc3c(C)c(-c3ccccc3)c-2c1C(=O)OC | > 11 µM (inactive)
CC(C)(C)c1nn(-c2ccccc2)c2[nH]c(=O)c(CNCc3ccco3)cc12 | > 11 µM (inactive)
CCN1C(=O)NC(=O)/C(=C\c2cn(CC(=O)O)c3ccccc23)C1=O | > 11 µM (inactive)
CC(C)C1Nc2ccc(S(N)(=O)=O)cc2C2C=CCC21 (stereo not drawn) | > 11 µM (inactive)

SMILES | EC50
COc1cc(OC)c(OC)cc1/C=C1\Oc2cc(OS(C)(=O)=O)ccc2C1=O | > 11 µM (inactive)
N#CC1=C(N)C(C#N)(C#N)C(c2cccnc2)C2COCC=C12 (stereo not drawn) | > 11 µM (inactive)
CC1CN(C2CC(C)(C)NC(C)(C)C2)CCC1=O (stereo not drawn) | > 11 µM (inactive)
Cc1ncc(/C=C2\C(=O)Nc3ccccc32)[nH]1 | > 11 µM (inactive)
COC(=O)c1cccc(-n2c(C)cc(C=O)c2C)c1C | > 11 µM (inactive)
O=C(/C=C/N1CCOCC1)c1ccc(-c2ccccc2)cc1 | > 11 µM (inactive)
CCCn1nc(C(=O)Nc2ccc3nc(C)sc3c2)c2ccccc2c1=O | > 11 µM (inactive)
Cc1ccc(Sc2ccc(C=C3C(=O)N(C)C(=O)N(C)C3=O)o2)cc1 | > 11 µM (inactive)
CN1CCc2c(sc3c2C(=O)NC(c2ccccn2)N3)C1 (stereo not drawn) | > 11 µM (inactive)
CC(C)Sc1nsc2nc(=O)c(/C=C3\C=Nc4ccccc43)c(N)n12 | > 11 µM (inactive)
CCOC(=O)N1CCN(c2nc3ccccc3nc2C(C#N)S(=O)(=O)c2ccc(C)cc2)CC1 (stereo not drawn) | > 11 µM (inactive)
CCC(C)n1c(=N)c(C#N)cc2c(=O)n3cccc(C)c3nc21 (stereo not drawn) | > 11 µM (inactive)
COc1ccc(C(=O)/C=C/c2ccc(-c3ccccc3)cc2)cc1CSCC(=O)O | > 11 µM (inactive)
CCCCC1=CC2=CC(=O)C(C)(OC(=O)CC)C(=O)C2=CO1 (stereo not drawn) | > 11 µM (inactive)
O=C(Nc1ccccc1)NC1(C(=O)NCc2ccc3c(c2)OCO3)CCCCC1 | > 11 µM (inactive)
COc1cc2c(cc1OC)-c1c(OC)c(OC)c(OC)c3ccnc(c13)C2=O | > 11 µM (inactive)
O=C(O)c1ccccc1-c1ccc(C=C2C(=O)N(c3ccccc3)C(=S)N(c3ccccc3)C2=O)o1 | > 11 µM (inactive)
COc1ccc(/C=C2\CCCC(C(=O)C(F)(F)F)=C2O)cc1 | > 11 µM (inactive)
O=C(O)CCNc1ccc(NCCC(=O)O)c2c1C(=O)c1ccccc1C2=O | > 11 µM (inactive)
N#CC1=C(N)OC2=C(C(=O)CCC2)[C@]12C(=O)N(CC(N)=O)c1ccccc12 | > 11 µM (inactive)
Cc1cccc(/C=C(\C(=O)C(=O)O)c2ccc3ccccc3n2)c1 | > 11 µM (inactive)
Cc1cc(C=C2C(=O)N(C)C(=S)N(C)C2=O)c(C)n1C1CCCC1 | > 11 µM (inactive)
N#CC(C#N)=Cc1ccc(-c2ccccc2)o1 | > 11 µM (inactive)

SMILES | EC50
CCOP(=O)(OCC)C(Nc1cccc([N+](=O)[O-])c1)c1ccccc1 (stereo not drawn) | > 11 µM (inactive)
O=C(CSCc1c(Cl)cccc1Cl)NCC1CCCO1 (stereo not drawn) | > 11 µM (inactive)
CC(C)OC(=O)C(C#N)c1nc2ccccc2nc1N1CCCC1 (stereo not drawn) | > 11 µM (inactive)
COc1ccc(OC)c(/C=c2\sc3nc(-c4cccs4)nn3c2=O)c1 | > 11 µM (inactive)
O=C1c2ccccc2C(=O)c2[nH]cnc21 | > 11 µM (inactive)
c1coc(-c2nc3ccccc3nc2-c2ccco2)c1 | > 11 µM (inactive)
COc1ccc(C=C2C(=O)OC(C)(C)OC2=O)cc1OC | > 11 µM (inactive)
COc1cc2c(cc1OC)C(c1ccc(-c3ccc(Cl)cc3Cl)o1)=NCC2 | > 11 µM (inactive)
COc1ccc(C2=CC3=C(Br)C(=O)C(C)(OC(=O)C4CCCC4)C(=O)C3=CO2)cc1 (stereo not drawn) | > 11 µM (inactive)
COc1cccc(NS(=O)(=O)c2ccc3c(c2)C2C=CCC2C(c2ccc(C(=O)O)cc2)N3)c1 (stereo not drawn) | > 11 µM (inactive)
O=C1N=C(N2CCOCC2)S/C1=C\c1ccc(-c2ccccc2Cl)o1 | > 11 µM (inactive)
Cc1ccc2sc(NNC(=O)c3cc(=O)c4ccccc4o3)nc2c1C | > 11 µM (inactive)
CCOC(=O)COn1c(=O)c(-c2cc3ccccc3o2)[n+]([O-])c2ccccc21 | > 11 µM (inactive)
CCOc1ccc(-n2c(O)c(/C=C3\C=Nc4ccccc43)c(=O)[nH]c2=O)cc1 | > 11 µM (inactive)
COc1ccc(N=C(C)c2sc3ccccc3c2O)cc1 | > 11 µM (inactive)
CC/C(=C\C=C\[C@@H]1C=C[C@@H]2CCC[C@H]2[C@@H]1C(=O)c1ccc[nH]1)[C@@H]1O[C@@H]([C@@H](C)C(=O)O)CC[C@@H]1C | > 11 µM (inactive)
COc1cc(/C=C2/C(=O)ON=C2C)ccc1OCc1ccccc1F | > 11 µM (inactive)
CCOc1cc(C2C(C#N)=C(N)OC3=C2C(=O)CC(C)(C)C3)cc([N+](=O)[O-])c1O (stereo not drawn) | > 11 µM (inactive)
Cc1cc(NC(=O)/C(C#N)=C/c2ccc(-c3ccc(SC(F)F)cc3)o2)n(-c2ccccc2)n1 | > 11 µM (inactive)
Cn1c(O)c(/C=C2\C=Nc3ccccc32)c(=O)n(C)c1=O | > 11 µM (inactive)
CC(=O)c1ccc2c(c1)C1C=CCC1C(c1cc3c(cc1Br)OCO3)N2 (stereo not drawn) | > 11 µM (inactive)
CCC(=O)OC1(C)C(=O)C=C2C=C(CCCCNC(=O)OC(C)(C)C)OC=C2C1=O (stereo not drawn) | > 11 µM (inactive)
